Source: PubChem BioAssay AID256 (DTP/NCI, 2004)
Values joined by “and” are separate entries in the source; they are usually repeats but may differ in a detail not shown here. Equal entries are not always repeated. Toxic doses and inconclusive results are not listed. The calls were made as follows: active = survival T/C of 150% or more; inactive = T/C below 125% in these data.

Tested on: CD2F1 mice, L1210 leukemia ip, survival T/C
Assay: NCI In Vivo Anticancer Drug Screen. Data for tumor model L1210 Leukemia (intraperitoneal) in CD2F1 (CDF1) mice
Conditions: higher = longer survival
Summary of the method: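 Activity against a transplanted murine tumor was judged by comparing the compound group with a vehicle group. The outcome in the treated animals was divided by that in the controls.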

[1] = endpoint: mean survival time, dose: 25.0 mg/kg/injection, schedule: Q01DX009 (ip), vehicle: Klucel (hydroxypropylcellulose) (HPC)
[2] = endpoint: mean survival time, dose: 50.0 mg/kg/injection, schedule: Q01DX009 (ip), vehicle: Klucel (hydroxypropylcellulose) (HPC)
[3] = endpoint: mean survival time, dose: 100.0 mg/kg/injection, schedule: Q01DX009 (ip), vehicle: Klucel (hydroxypropylcellulose) (HPC)
[4] = endpoint: mean survival time, dose: 100.0 mg/kg/injection, schedule: Q01DX009 (ip), vehicle: saline
[5] = endpoint: mean survival time, dose: 200.0 mg/kg/injection, schedule: Q01DX009 (ip), vehicle: Klucel (hydroxypropylcellulose) (HPC)
[6] = endpoint: mean survival time, dose: 200.0 mg/kg/injection, schedule: Q01DX009 (ip), vehicle: saline
[7] = endpoint: mean survival time, dose: 400.0 mg/kg/injection, schedule: Q01DX009 (ip), vehicle: saline
[8] = endpoint: mean survival time, dose: 50.0 mg/kg/injection, schedule: Q01DX009 (ip), vehicle: saline with Tween-80
[9] = endpoint: mean survival time, dose: 100.0 mg/kg/injection, schedule: Q01DX001 (ip), vehicle: saline
[10] = endpoint: mean survival time, dose: 100.0 mg/kg/injection, schedule: Q01DX009 (ip), vehicle: saline with Tween-80
[11] = endpoint: mean survival time, dose: 100.0 mg/kg/injection, schedule: Q04DX003 (ip), vehicle: saline with Tween-80
[12] = endpoint: mean survival time, dose: 200.0 mg/kg/injection, schedule: Q01DX001 (ip), vehicle: saline
[13] = endpoint: mean survival time, dose: 200.0 mg/kg/injection, schedule: Q01DX009 (ip), vehicle: saline with Tween-80
[14] = endpoint: mean survival time, dose: 200.0 mg/kg/injection, schedule: Q04DX003 (ip), vehicle: saline with Tween-80
[15] = endpoint: mean survival time, dose: 400.0 mg/kg/injection, schedule: Q01DX001 (ip), vehicle: saline
[16] = endpoint: mean survival time, dose: 400.0 mg/kg/injection, schedule: Q04DX003 (ip), vehicle: saline with Tween-80
[17] = endpoint: mean survival time, dose: 400.0 mg/kg/injection, schedule: Q01DX009 (ip), vehicle: saline with Tween-80
[18] = endpoint: mean survival time, dose: 25.0 mg/kg/injection, schedule: Q01DX009 (ip), vehicle: other
[19] = endpoint: mean survival time, dose: 50.0 mg/kg/injection, schedule: Q01DX009 (ip), vehicle: other
[20] = endpoint: mean survival time, dose: 100.0 mg/kg/injection, schedule: Q01DX009 (ip), vehicle: other
[21] = endpoint: mean survival time, dose: 200.0 mg/kg/injection, schedule: Q01DX009 (ip), vehicle: other
[22] = endpoint: mean survival time, dose: 400.0 mg/kg/injection, schedule: Q01DX009 (ip), vehicle: other
[23] = endpoint: mean survival time, dose: 75.0 mg/kg/injection, schedule: Q01DX001 (ip), vehicle: saline

Measured: T/C

CC1=NNC(C)(C)C1
inactive: [1] 96 % of control | [2] 97 % of control | [3] 92 % of control | [4] 102 % of control | [5] 97 % of control | [6] 105 % of control | endpoint: mean survival time, dose: 400.0 mg/kg/injection, schedule: Q01DX009 (ip), vehicle: Klucel (hydroxypropylcellulose) (HPC) 97 % of control | [7] 103 % of control

CC(=O)ON=C1C=CC(=C(C#N)c2ccccc2)C=C1
inactive: endpoint: mean survival time, dose: 50.0 mg/kg/injection, schedule: Q01DX001 (ip), vehicle: saline 96 % of control | [8] 97 % of control and 101 % of control | [9] 98 % of control | [10] 98 % of control and 100 % of control | [11] 91 % of control | [12] 95 % of control | [13] 93 % of control and 101 % of control | [14] 95 % of control | [15] 90 % of control | [16] 105 % of control

Clc1ccc(/C(=C(\Br)c2ccccc2)c2ccccc2)cc1
inactive: [11] 102 % of control and 100 % of control | [14] 100 % of control and 102 % of control | [16] 96 % of control and 94 % of control

COc1cc(/C=N\Nc2ccccc2[N+](=O)[O-])cc(OC)c1OC
inactive: [10] 93 % of control | [13] 103 % of control | [17] 98 % of control

COC(=O)C1(c2ccccn2)CCN(C)CC1
inactive: [4] 102 % of control | [6] 98 % of control | [7] 101 % of control

Cn1cnc([N+](=O)[O-])c1Sc1ncnc2c1cnn2C1OC(CO)C(O)C1O (stereo not given)
inactive: [18] 95 % of control | [19] 114 % of control | [20] 97 % of control | [21] 108 % of control | [22] 117 % of control | endpoint: median survival time, dose: 10.0 mg/kg/injection, schedule: Q01DX005 (ip), vehicle: saline with Tween-80 96 % of control | endpoint: median survival time, dose: 20.0 mg/kg/injection, schedule: Q01DX005 (ip), vehicle: saline with Tween-80 103 % of control | endpoint: median survival time, dose: 40.0 mg/kg/injection, schedule: Q01DX005 (ip), vehicle: saline with Tween-80 103 % of control | endpoint: median survival time, dose: 80.0 mg/kg/injection, schedule: Q01DX005 (ip), vehicle: saline with Tween-80 102 % of control | endpoint: median survival time, dose: 160.0 mg/kg/injection, schedule: Q01DX005 (ip), vehicle: saline with Tween-80 91 % of control

COc1cc2c(cc1OC)C1CC(=O)C(CC(C)C)CN1CC2 (stereo not given)
inactive: [11] 96 % of control | [14] 88 % of control | [16] 100 % of control

O=C(/C=C/c1ccco1)c1ccc2ccccc2c1
inactive: [9] 102 % of control | [12] 94 % of control | [15] 94 % of control

Nc1ccc([N+](=O)[O-])c(S(=O)(=O)O)c1
inactive: [11] 95 % of control | [14] 95 % of control | [16] 89 % of control

CC(=O)Oc1[nH]c(=O)c2cccc3c2c1CCC3
inactive: endpoint: median survival time, dose: 25.0 mg/kg/injection, schedule: Q01DX009 (ip), vehicle: saline with Tween-80 106 % of control | endpoint: median survival time, dose: 50.0 mg/kg/injection, schedule: Q01DX009 (ip), vehicle: saline with Tween-80 104 % of control | endpoint: median survival time, dose: 100.0 mg/kg/injection, schedule: Q01DX009 (ip), vehicle: saline with Tween-80 100 % of control and 104 % of control | endpoint: median survival time, dose: 200.0 mg/kg/injection, schedule: Q01DX009 (ip), vehicle: saline with Tween-80 97 % of control and 103 % of control | endpoint: median survival time, dose: 400.0 mg/kg/injection, schedule: Q01DX009 (ip), vehicle: saline with Tween-80 97 % of control and 108 % of control

O=C(NCO)c1ccccc1
inactive: [2] 96 % of control | [3] 96 % of control | [5] 96 % of control

C=CC1CCCCC1C (stereo not given)
inactive: [11] 100 % of control | [14] 100 % of control | [16] 103 % of control

O=C1NCCCS1(=O)=O
inactive: [23] 108 % of control

Cc1nc(Cl)c(C)c(C(=O)O)n1
inactive: endpoint: mean survival time, dose: 12.5 mg/kg/injection, schedule: Q01DX009 (ip), vehicle: other 98 % of control | [18] 102 % of control | [19] 104 % of control | [20] 96 % of control

COC(=O)C1C2OC3C(OC(=O)C31)C2Br (stereo not given)
inactive: [10] 91 % of control | [11] 86 % of control | [13] 91 % of control | [14] 94 % of control | [17] 95 % of control | [16] 91 % of control

CC#CN(CC)CC
inactive: [23] 105 % of control | endpoint: mean survival time, dose: 150.0 mg/kg/injection, schedule: Q01DX001 (ip), vehicle: saline 106 % of control

Nc1ccc2c(c1)-c1ccccc1C2O (stereo not given)
inactive: [11] 92 % of control | [14] 101 % of control | [16] 99 % of control

CCOC(=O)c1cc2cc([N+](=O)[O-])ccc2[nH]1
inactive: [11] 92 % of control | [14] 87 % of control | [16] 91 % of control

CCCC[S+](CCCC)CC(=O)c1ccc(-c2ccccc2)cc1
inactive: endpoint: mean survival time, dose: 0.19 mg/kg/injection, schedule: Q01DX009 (ip), vehicle: saline with Tween-80 97 % of control | endpoint: mean survival time, dose: 0.39 mg/kg/injection, schedule: Q01DX009 (ip), vehicle: saline with Tween-80 101 % of control | endpoint: mean survival time, dose: 0.76 mg/kg/injection, schedule: Q01DX009 (ip), vehicle: saline with Tween-80 98 % of control | endpoint: mean survival time, dose: 1.56 mg/kg/injection, schedule: Q01DX009 (ip), vehicle: saline with Tween-80 97 % of control | endpoint: mean survival time, dose: 1.56 mg/kg/injection, schedule: Q01DX009 (ip), vehicle: saline 86 % of control | endpoint: mean survival time, dose: 3.12 mg/kg/injection, schedule: Q01DX009 (ip), vehicle: saline with Tween-80 98 % of control | endpoint: mean survival time, dose: 3.13 mg/kg/injection, schedule: Q01DX009 (ip), vehicle: saline 87 % of control | endpoint: mean survival time, dose: 12.5 mg/kg/injection, schedule: Q01DX009 (ip), vehicle: saline 87 % of control | endpoint: mean survival time, dose: 25.0 mg/kg/injection, schedule: Q01DX009 (ip), vehicle: saline 87 % of control

COc1ccc(Cc2ccc(O)cc2)cc1
inactive: [20] 101 % of control | [21] 101 % of control | [22] 104 % of control

OC1CCCC2CCCCC12 (stereo not given)
inactive: [11] 100 % of control | [14] 109 % of control | [16] 94 % of control

COc1cc(NC(C)=O)c2ncccc2c1Br
inactive: [11] 104 % of control | [14] 97 % of control | [16] 92 % of control

CCC(=O)NC1=CC(=O)c2ccccc2C1=O
inactive: endpoint: mean survival time, dose: 25.0 mg/kg/injection, schedule: Q01DX009 (ip), vehicle: saline with Tween-80 101 % of control | [8] 100 % of control

CCn1c(=S)[nH]c(=O)c2n[nH]nc21
inactive: endpoint: mean survival time, dose: 100.0 mg/kg/injection, schedule: Q01DX009 (ip), vehicle: acetone 100 % of control | endpoint: mean survival time, dose: 200.0 mg/kg/injection, schedule: Q01DX009 (ip), vehicle: acetone 94 % of control

CC[NH-].CC[NH-].[Cl][Pt+2][Cl]
inactive: endpoint: mean survival time, dose: 2.5 mg/kg/injection, schedule: Q04DX003 (ip), vehicle: water 115 % of control | endpoint: mean survival time, dose: 5.0 mg/kg/injection, schedule: Q04DX003 (ip), vehicle: water 116 % of control | endpoint: mean survival time, dose: 10.0 mg/kg/injection, schedule: Q04DX003 (ip), vehicle: water 112 % of control

CCNCCNc1ccc(NCCNCC)c2c1C(=O)c1ccccc1C2=O
inactive: endpoint: mean survival time, dose: 2.0 mg/kg/injection, schedule: Q01DX009 (ip), vehicle: acid diluted with saline 122 % of control | endpoint: mean survival time, dose: 4.0 mg/kg/injection, schedule: Q01DX009 (ip), vehicle: acid diluted with saline 122 % of control and 123 % of control

O=c1[nH]c2ccccc2nc1C(Cl)Cl
inactive: [1] 105 % of control | [2] 100 % of control | endpoint: mean survival time, dose: 50.0 mg/kg/injection, schedule: Q04DX003 (ip), vehicle: Klucel (hydroxypropylcellulose) (HPC) 114 % of control | [3] 116 % of control | endpoint: mean survival time, dose: 100.0 mg/kg/injection, schedule: Q04DX003 (ip), vehicle: Klucel (hydroxypropylcellulose) (HPC) 105 % of control | endpoint: mean survival time, dose: 200.0 mg/kg/injection, schedule: Q04DX003 (ip), vehicle: Klucel (hydroxypropylcellulose) (HPC) 105 % of control | endpoint: median survival time, dose: 50.0 mg/kg/injection, schedule: Q04DX003 (ip), vehicle: Klucel (hydroxypropylcellulose) (HPC) 107 % of control | endpoint: median survival time, dose: 100.0 mg/kg/injection, schedule: Q04DX003 (ip), vehicle: Klucel (hydroxypropylcellulose) (HPC) 104 % of control | endpoint: median survival time, dose: 200.0 mg/kg/injection, schedule: Q04DX003 (ip), vehicle: Klucel (hydroxypropylcellulose) (HPC) 117 % of control

OC1CCCC/C1=C/C=C/c1ccccc1 (stereo not given)
inactive: [10] 92 % of control and 91 % of control | [13] 94 % of control and 92 % of control | [17] 93 % of control
